From ChEMBL document CHEMBL1148514, “Development of lipopeptides for inhibiting 20S proteasomes” (Bioorg Med Chem Lett, 2006)
Residues, ends and D or L forms follow the SMILES beside them.

Tests used:
[1] = molecular target: T1, Proteasome Macropain subunit (Saccharomyces cerevisiae S288c) (UniProt P22141); assay: Inhibition of trypsin like activity of yeast 20S proteasome at 80 uM
T1 sequence (whole entry): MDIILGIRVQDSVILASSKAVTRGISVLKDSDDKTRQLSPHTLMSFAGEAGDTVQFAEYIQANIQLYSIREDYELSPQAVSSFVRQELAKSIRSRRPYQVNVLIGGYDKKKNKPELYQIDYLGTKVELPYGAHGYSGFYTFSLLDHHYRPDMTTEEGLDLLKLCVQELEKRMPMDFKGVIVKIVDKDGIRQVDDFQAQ

[2] = molecular target: T2, Proteasome component C5 (Saccharomyces cerevisiae S288c) (UniProt P23724); assay: Inhibition of post acid activity of yeast 20S proteasome at 80 uM
T2 sequence (whole entry): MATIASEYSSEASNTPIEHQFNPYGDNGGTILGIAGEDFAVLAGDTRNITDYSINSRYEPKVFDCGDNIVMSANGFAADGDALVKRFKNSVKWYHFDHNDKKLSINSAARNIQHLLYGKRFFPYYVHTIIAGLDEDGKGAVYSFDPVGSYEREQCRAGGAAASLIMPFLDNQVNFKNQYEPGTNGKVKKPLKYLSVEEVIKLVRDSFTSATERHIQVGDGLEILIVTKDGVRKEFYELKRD

[3] = molecular target: T3, Proteasome Macropain subunit PRE2 (Saccharomyces cerevisiae S288c, UniProt P30656); assay: Inhibition of chymotrypsin like activity of yeast 20S proteasome
T3 sequence (P30656 whole entry): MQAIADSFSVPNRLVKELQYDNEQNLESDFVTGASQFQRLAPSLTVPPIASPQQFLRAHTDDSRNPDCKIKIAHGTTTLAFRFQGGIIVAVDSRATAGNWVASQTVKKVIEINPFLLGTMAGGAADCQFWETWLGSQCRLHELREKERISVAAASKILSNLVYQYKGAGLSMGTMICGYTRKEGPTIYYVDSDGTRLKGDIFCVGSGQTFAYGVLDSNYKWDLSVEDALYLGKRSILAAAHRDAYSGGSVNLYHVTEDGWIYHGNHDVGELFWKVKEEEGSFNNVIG

Proteasome component C5 = molecular target: T4, Proteasome component C5 (Saccharomyces cerevisiae S288c, UniProt P23724); assay: Inhibition of post acid activity of yeast 20S proteasome
T4 sequence (P23724 whole entry): T2 sequence (whole entry)

[4] = molecular target: T1, Proteasome Macropain subunit (Saccharomyces cerevisiae S288c); assay: Inhibition of trypsin like activity of yeast 20S proteasome at 625 uM

Row | Molecule | inhibition [1] [%] | inhibition [2] [%] | Ki [3] [µM] | Ki (Proteasome component C5) [µM] | inhibition [4] [%]
1 | CCCCCC(=O)N[C@H](C(=O)N[C@H](C(=O)N[C@H](C(=O)N[C@@H](Cc1ccccc1)C(=O)N[C@@H](CC(=O)O)C(=O)N[C@@H](Cc1ccc(O)cc1)C(=O)O)[C@@H](C)O)[C@@H](C)CC)[C@@H](C)O (HELM PEPTIDE1{[CCCCCC(=O)[*:2]].T.I.T.F.D.Y}$$$$V2.0) | < 10 | < 10 | 34 | – | –
2 | CCCCCC(=O)N[C@H](C(=O)N[C@H](C(=O)N[C@H](C(=O)N[C@@H](Cc1ccccc1)C(=O)N[C@@H](CCCCN)C(=O)N[C@@H](Cc1ccccc1)C(=O)O)[C@@H](C)O)C(C)C)[C@@H](C)O (HELM PEPTIDE1{[CCCCCC(=O)[*:2]].T.V.T.F.K.F}$$$$V2.0) | < 10 | < 10 | 43 | – | –
3 | CCCCCC(=O)N[C@@H](Cc1ccc(O)cc1)C(=O)N[C@@H](CCC(=O)O)C(=O)N[C@@H](CC(C)C)C(=O)O (HELM PEPTIDE1{[CCCCCC(=O)[*:2]].Y.E.L}$$$$V2.0) | < 10 | – | > 80 | 59 | –
4 | CCCCCCCC(=O)N[C@H](C(=O)N[C@H](C(=O)N[C@H](C(=O)N[C@@H](Cc1ccccc1)C(=O)N[C@@H](CC(=O)O)C(=O)N[C@@H](Cc1ccc(O)cc1)C(=O)O)[C@@H](C)O)[C@@H](C)CC)[C@@H](C)O (HELM PEPTIDE1{[CCCCCCCC(=O)[*:2]].T.I.T.F.D.Y}$$$$V2.0) | < 10 | – | 43 | > 80 | –
5 | CCCCCCCC(=O)N[C@H](C(=O)N[C@H](C(=O)N[C@H](C(=O)N[C@@H](Cc1ccccc1)C(=O)N[C@@H](CCCCN)C(=O)N[C@@H](Cc1ccccc1)C(=O)O)[C@@H](C)O)C(C)C)[C@@H](C)O (HELM PEPTIDE1{[CCCCCCCC(=O)[*:2]].T.V.T.F.K.F}$$$$V2.0) | – | – | > 80 | – | –
6 | CCCCCCCCCC(=O)N[C@H](C(=O)N[C@H](C(=O)N[C@H](C(=O)N[C@@H](Cc1ccccc1)C(=O)N[C@@H](CC(=O)O)C(=O)N[C@@H](Cc1ccc(O)cc1)C(=O)O)[C@@H](C)O)[C@@H](C)CC)[C@@H](C)O (HELM PEPTIDE1{[CCCCCCCCCC(=O)[*:2]].T.I.T.F.D.Y}$$$$V2.0) | – | – | 37 | – | –
7 | CCCCCCCCCC(=O)N[C@H](C(=O)N[C@H](C(=O)N[C@H](C(=O)N[C@@H](Cc1ccccc1)C(=O)N[C@@H](CCCCN)C(=O)N[C@@H](Cc1ccccc1)C(=O)O)[C@@H](C)O)C(C)C)[C@@H](C)O (HELM PEPTIDE1{[CCCCCCCCCC(=O)[*:2]].T.V.T.F.K.F}$$$$V2.0) | – | – | 28 | – | –
8 | CCCCCCCCCCCCCCC(N)C(=O)N[C@@H](Cc1ccc(O)cc1)C(=O)N[C@@H](CCC(=O)O)C(=O)N[C@H](C(=O)O)[C@@H](C)O (stereo partly drawn) (HELM PEPTIDE1{[CCCCCCCCCCCCCCC(N)C(=O)[*:2]].Y.E.T}$$$$V2.0) | – | – | 5 | 8 | –
9 | CCCCCCCCCCCCCCCC(=O)N[C@@H](Cc1ccc(O)cc1)C(=O)N[C@@H](CCC(=O)O)C(=O)N[C@H](C(=O)O)[C@@H](C)O (HELM PEPTIDE1{[CCCCCCCCCCCCCCCC(=O)[*:2]].Y.E.T}$$$$V2.0) | – | – | 20 | 21 | –
10 | CCCCCCCCCCCCCCCC(=O)N[C@@H](Cc1ccc(O)cc1)C(=O)N[C@@H](CC(N)=O)C(=O)N[C@H](C(=O)O)[C@@H](C)O (HELM PEPTIDE1{[CCCCCCCCCCCCCCCC(=O)[*:2]].Y.N.T}$$$$V2.0) | – | – | 30 | – | –
11 | H-TISYDY-OH | – | – | > 625 | > 625 | < 10
12 | H-TITFDY-OH | – | – | > 625 | > 625 | < 10
13 | H-TITYDL-OH | – | – | 619 | > 625 | < 10
14 | H-TVSYKF-OH | – | – | > 625 | > 625 | < 10
15 | H-TVTFKF-OH | – | – | 139 | 148 | < 10
16 | H-TVTYKY-OH | – | – | > 625 | > 625 | < 10
